Source: ChEMBL document CHEMBL4354874, “Insights into PPARγ Phosphorylation and Its Inhibition Mechanism” (J Med Chem, 2020)
Active and inactive are the calls of the source. The calls are words filed in the database; no cut-off is given here.

Target: Cyclin-dependent kinase 5 (Homo sapiens) (UniProt Q00535)
Assay: Inhibition of CDK5 (unknown origin) assessed as reduction in histone H1 phosphorylation

Chain of Cyclin-dependent kinase 5 (Homo sapiens) (Q00535 whole entry, looked up): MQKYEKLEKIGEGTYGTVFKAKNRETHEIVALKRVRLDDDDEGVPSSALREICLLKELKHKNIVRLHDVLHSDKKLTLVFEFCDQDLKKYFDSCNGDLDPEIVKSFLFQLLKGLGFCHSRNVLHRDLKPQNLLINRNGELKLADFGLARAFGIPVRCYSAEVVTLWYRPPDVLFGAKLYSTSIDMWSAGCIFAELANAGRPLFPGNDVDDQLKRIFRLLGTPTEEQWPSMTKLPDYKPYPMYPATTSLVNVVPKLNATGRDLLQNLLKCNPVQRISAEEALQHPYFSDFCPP

O=C(O)[C@H](Cc1ccccc1)Oc1ccc(-c2ccccc2)cc1
inhibition: inactive
